The numbers were not newly measured in US12247053B2 (priority 2018, dated 2025), which cites them from elsewhere.

This data set concerns American isolates of H3N2.

Molecules are shown by their SMILES.

For `NC12CC3CC(CC(C3)C1)C2` [amantadine], the measured resistance is given as 91%.

Turning to `CC(N)C12CC3CC(CC(C3)C1)C2` (centres unmarked) [rimantadine], the measured resistance is given as 91%.
